target: T1, purified full-length human recombinant aggrecanase-1 (rAgg1) (Homo sapiens, UniProt O75173); test: Aggrecanase-1 FRET Assay; type: biochemical; settings: not given
T1 construct: purified full-length human recombinant aggrecanase-1
T1 sequence (O75173 213-837): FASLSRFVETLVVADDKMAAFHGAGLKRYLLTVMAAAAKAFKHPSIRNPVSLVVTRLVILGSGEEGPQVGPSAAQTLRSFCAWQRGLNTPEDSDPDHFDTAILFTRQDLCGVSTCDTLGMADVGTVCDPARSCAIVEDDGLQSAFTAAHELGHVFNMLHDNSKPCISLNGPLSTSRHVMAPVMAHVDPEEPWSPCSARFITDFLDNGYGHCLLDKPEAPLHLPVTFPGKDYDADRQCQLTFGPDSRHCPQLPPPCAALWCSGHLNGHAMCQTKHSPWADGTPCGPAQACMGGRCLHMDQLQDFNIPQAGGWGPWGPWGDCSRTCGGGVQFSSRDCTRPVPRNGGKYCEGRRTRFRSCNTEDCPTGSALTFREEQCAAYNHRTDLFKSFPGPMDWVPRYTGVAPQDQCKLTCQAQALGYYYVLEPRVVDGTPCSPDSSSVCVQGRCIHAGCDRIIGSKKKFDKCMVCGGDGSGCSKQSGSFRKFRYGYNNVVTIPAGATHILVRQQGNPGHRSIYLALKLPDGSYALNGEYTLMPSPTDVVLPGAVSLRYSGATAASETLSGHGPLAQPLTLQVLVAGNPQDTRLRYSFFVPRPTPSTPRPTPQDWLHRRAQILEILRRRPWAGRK

Going from `CC(C)[C@@H](NS(=O)(=O)c1ccc(-c2ccc(OC(=O)Nc3cc4ccccc4o3)cc2)cc1)C(=O)O` [Example 6S, N-[(4′-{[(1-benzofuran-2-ylamino)carbonyl]oxy}-1,1′-biphenyl-4-yl)sulfonyl]-D-valine] to `CC(C)[C@@H](NS(=O)(=O)c1ccc(-c2ccc(OC(=O)Nc3ccc4ccccc4c3)cc2)cc1)C(=O)O` [Example 6C, D-3-Methyl-2-[4′-(naphthalen-2-ylcarbamoyloxy)-biphenyl-4-sulfonylamino]-butyric acid], the IC50 falls from 4500 nM to 1100 nM (4.1-fold).

Compared with `CC(C)[C@@H](NS(=O)(=O)c1ccc(-c2ccc(OC(=O)Nc3ccc(Oc4ccccc4)cc3)cc2)cc1)C(=O)O` [Example 6B, D-3-Methyl-2-[4′-(4-phenoxy-phenylcarbamoyloxy)-biphenyl-4-sulfonylamino]-butyric acid], `CC(C)[C@@H](NS(=O)(=O)c1ccc(-c2ccc(OC(=O)Nc3ccc(F)cc3)cc2)cc1)C(=O)O` [Example 6A, 2-[4′-(4-Fluoro-phenylcarbamoyloxy)-biphenyl-4-sulfonylamino]-3-methyl-butyric acid] is 6-fold higher in IC50: 600 nM for the first, 3600 nM for the second.

same assay, conditions: rAgg1 5 μg/ml, substrate Abz-[…]-Dap(Dnp) 25 μM, 30° C., pH 7.5; read-out: IC50

Compared with `CC(C)[C@@H](NS(=O)(=O)c1ccc(-c2ccc(O)cc2)cc1C(F)(F)F)C(=O)O` [Example 12B, 2-(4′-Hydroxy-3-trifluoromethyl-biphenyl-4-sulfonylamino)-3-methyl-butyric acid], `CC(C)[C@@H](NS(=O)(=O)c1ccc(-c2ccc(O)cc2)cc1OC(F)(F)F)C(=O)O` [Example 12A, 2-(4′-Hydroxy-3-trifluoromethoxy-biphenyl-4-sulfonylamino)-3-methyl-butyric acid] is 3-fold higher in IC50: 67000 nM for the first, 200000 nM for the second.

First: Cc1cc2ccccc2nc1OCc1ccc(-c2ccc(S(=O)(=O)N[C@@H](C(=O)O)C(C)C)cc2)cc1 [Example 1A, 3-Methyl-2-[4′-(3-methyl-quinolin-2-yloxymethyl)-biphenyl-4-sulfonylamino]-butyric acid]
Second: Cc1cc(OCc2ccc(-c3ccc(S(=O)(=O)N[C@@H](C(=O)O)C(C)C)cc3)cc2)c2ccccc2n1 [Example 1D, D-3-Methyl-2-[4′-(2-methyl-quinolin-4-yloxymethyl)-biphenyl-4-sulfonylamino]-butyric acid]
The IC50 of the first is 2-fold lower: 200 nM for the first, 400 nM for the second.

Going from `CC(C)[C@@H](NS(=O)(=O)c1ccc(-c2ccc(OCc3ccc4ccccc4c3)cc2)cc1)C(=O)O` [Example 2C, D-3-Methyl-2-[4′-(naphthalen-2-ylmethoxy)-biphenyl-4-sulfonylamino]-butyric acid] to `CC(C)[C@@H](NS(=O)(=O)c1ccc(-c2ccc(OCc3ccccc3)cc2)cc1)C(=O)O` [Example 2D, D-2-(4′-Benzyloxy-biphenyl-4-sulfonylamino)-3-methyl-butyric acid], the IC50 rises from 800 nM to 5500 nM (6.9-fold). The first is the more potent here.

Compared with `CC(C)[C@@H](NS(=O)(=O)c1ccc(-c2ccc(COc3ccc4ccccc4n3)cc2)cc1)C(=O)O` [Example 1E], `CC(C)[C@@H](NS(=O)(=O)c1ccc(-c2ccc(COc3nc4ccccc4s3)cc2)cc1)C(=O)O` [Example 1F, 2-[4′-(Benzothiazol-2-yloxymethyl)-biphenyl-4-sulfonylamino]-3-methyl-butyric acid] is 2.5-fold higher in IC50: 600 nM for the first, 1500 nM for the second. The first is the more potent here.

Compared with `CC(C)[C@@H](NS(=O)(=O)c1ccc(-c2ccc(OCc3cc4ccccc4o3)cc2)cc1)C(=O)O` [Example 2B, D-2-[4′-(Benzofuran-2-ylmethoxy)-biphenyl-4-sulfonylamino]-3-methyl-butyric acid], `CC(C)[C@@H](NS(=O)(=O)c1ccc(-c2ccc(OC(=O)c3cc4ccccc4o3)cc2)cc1)C(=O)O` [Example 7B, Benzofuran-2-carboxylic acid 4′-(1-carboxy-2-methyl-propylsulfamoyl)-biphenyl-4-yl ester] is 4.3-fold lower in IC50: 1500 nM for the first, 345 nM for the second. The second is the more potent here.

Going from `CC(C)[C@@H](NS(=O)(=O)c1ccc(-c2ccc(COc3cccc(C(=O)c4ccccc4)c3)cc2)cc1)C(=O)O` [Example 1H] to `Cc1cc(COc2ccc(-c3ccc(S(=O)(=O)N[C@@H](C(=O)O)C(C)C)cc3)cc2)c2ccccc2n1` [Example 2K, D-3-Methyl-2-[4′-(2-methyl-quinolin-4-ylmethoxy)-biphenyl-4-sulfonylamino]-butyric acid], the IC50 rises from 230 nM to 500 nM (2.2-fold).

Compared with `Cc1c(C(=O)Oc2ccc(-c3ccc(S(=O)(=O)N[C@@H](C(=O)O)C(C)C)cc3)cc2)oc2ccccc12` [Example 7A, D-3-Methyl-benzofuran-2-carboxylic acid 4′-(1-carboxy-2-methyl-propylsulfamoyl)-biphenyl-4-yl ester], `Cc1c(COc2ccc(-c3ccc(S(=O)(=O)N[C@@H](C(=O)O)C(C)C)cc3)cc2)oc2ccccc12` [Example 2A, D-3-Methyl-2-[4′-(3-methyl-benzofuran-2-ylmethoxy)-biphenyl-4-sulfonylamino]-butyric acid] is 11-fold higher in IC50: 90 nM for the first, 1000 nM for the second. The first is the more potent here.

First: COc1cc(-c2ccc(S(=O)(=O)N[C@@H](C(=O)O)C(C)C)cc2)ccc1OCc1ccc2ccccc2c1 [Example 11A, 3-Methyl-2-[4′-(naphthalen-2-ylmethoxy)-3′-methoxy-biphenyl-4-sulfonylamino]-butyric acid]
Second: COc1cc(COc2ccc(-c3ccc(S(=O)(=O)N[C@@H](C(=O)O)C(C)C)cc3)cc2OC)cc(OC)c1 [Example 11B, 2-[4′-(3,5-Dimethoxy-benzyloxy)-3′-methoxy-biphenyl-4-sulfonylamino]-3-methyl-butyric acid]
The IC50 of the first is 1.9-fold lower: 8900 nM for the first, 16700 nM for the second. The first is the more potent here.

Compared with `CC(C)[C@@H](NS(=O)(=O)c1ccc(-c2ccc(COc3ccc(C(F)(F)F)cn3)cc2)cc1)C(=O)O` [Example 1B, 3-Methyl-2-[4-(5-trifluoromethyl-pyridin-2-yloxymethyl)-biphenyl-4-sulfonylamino]-butyric acid], `CC(=O)NCc1ccc(-c2ccc(S(=O)(=O)N[C@@H](C(=O)O)C(C)C)cc2)cc1` [Example 5A, D-2-[4′-(Acetylamino-methyl)-biphenyl-4-sulfonylamino]-3-methyl-butyric acid] is 2-fold lower in IC50: 800 nM for the first, 400 nM for the second. The second is the more potent here.

Reference: patent US7923446B2, “Biaryl sulfonamides and methods for using same” (Wyeth LLC, priority 2003, dated 2011)
